Test results reported in patent publication US6919464B1, “Synthetic derivatives of 21-butenyl and related spinosyns” (Dow AgroSciences LLC, priority 2001, dated 2005).

System: Heliothis virescens
Experiment: Tobacco Budworm (Heliothis virescens) feeding assay, cotton leaf-dip
Format: in vivo
Details: rate 600 ppm, second instar larvae, 96 h

CCCC[C@H]1CCC[C@H](OC2CC[C@H](N(C)C)[C@@H](C)O2)[C@@H](C)C(=O)C2=CC3C4C[C@H](O[C@@H]5O[C@@H](C)[C@H](OC)[C@@H](O)[C@H]5OC)CC4CCC3C2CC(=O)O1 (stereo partly shown) [Compound B12, 5,6,22,23-tetrahydro-for-(3′-O-desmethylrham)-I]
mortality at 600 ppm: 100%
